Experiments:
[1] = Solubilization of DMPC lipid vesicles by peptides; format: physicochemical; settings: DMPC vesicles 1 mg/mL in PBS, peptide 0.1 mg/mL, 24 °C, 660 nm
[2] = test system: BHK cells expressing ABCA1; experiment: Radiolabeled cholesterol efflux from ABCA1-BHK cells; format: cell-based; settings: [3H]-cholesterol transferred from ABCA1-BHK cells to serum free medium containing peptides over 18 h; triplicates

## VLESFKVSFLSALEEYTKKLNT
[1]
  DMPC vesicle solubilization, comparison between peptides: less effective than the other active peptides
[2]
  ABCA1-mediated cholesterol efflux: almost completely inactive
